Source: paper PMC2653189 (PLoS ONE, 2009)

What was measured:
[1] = tested on: IFN-γ-mediated Stat1 phosphorylation; assay: Immunoblot of IFN-γ-mediated Stat1 phosphorylation in HepG2 cells; assay type: cell-based, human; settings: compound 300 µM 1 hour, IFN-γ 30 ng/ml 30 min
Description: The human hepatocellular carcinoma cell line (HepG2) was grown in 6-well plates under standard conditions. Cells were pretreated with compounds (0, 1, 3, 10, 30, 100 and 300 µM) for 1 hour then stimulated under optimal conditions with either interleukin-6 (IL-6; 30 ng/ml for 30 min) to activate Stat3 or interferon gamma (IFN-γ; 30 ng/ml for 30 min) to activate Stat1 [28]. Cultures were then harvested and proteins extracted using high-salt buffer, as described. Briefly, extracts were mixed with 2× sodium dodecyl sulfate (SDS) sample buffer (125 mM Tris-HCL pH 6.8; 4% SDS; 20% glycerol; 10% 2-mercaptoethanol) at a 1∶1 ratio and heated for 5 minutes at 100°C. Proteins (20 µg) were separated by 7.5% SDS-PAGE and transferred to polyvinylidene fluoride (PVDF) membrane (Millipore, Waltham, MA) and immunoblotted. Prestained molecular weight markers (BioRad; Hercules, CA) were included in each gel. Membranes were probed serially with antibody against Stat1 pY701 or Stat3 pY705 followed by antibody against Stat1 or Stat3 (Transduction labs, Lexington, KY) then antibody against β–actin (Abcam, Cambridge, MA). Membranes were stripped between antibody probing using Restore™ Western Blot Stripping Buffer (Thermo Fisher Scientific Inc., Waltham, MA) per the manufacturer's instructions. Horseradish peroxidase-conjugated goat-anti-mouse IgG was used as the secondary antibody (Invitrogen Carlsbad, CA) and the membranes were developed with enhanced chemiluminescence (ECL) detection system (Amersham Life Sciences Inc.; Arlington Heights, IL.).
Figure 2 Effect of compounds on ligand-mediated Stat3 and Stat1 phosphorylation. […] Cells were then stimulated with IL-6 (30 ng/ml) for 30 min. Protein extracts of cells were separated by SDS-PAGE, blotted and developed serially with antibodies to pStat3, total Stat3 and β-actin. Blots were stripped between each antibody probing. Band intensities were quantified by densitometry. The value of each pStat3 band was divided by its corresponding total Stat3 band intensity; the results were normalized to the DMSO-treated control value. This value was plotted as a function of the log compound concentration. The best-fitting curve was determined using 4-Parameter Logistic Model/Dose Response/XLfit 4.2, IDBS software and was used to calculate the IC50 value (Table 1). Each panel is representative of 3 or more experiments. In panel G, HepG2 cells were pretreated with DMSO alone or DMSO containing each of the compounds at a concentration of 300 µM for 60 min. Cells were then stimulated with IFN-γ (30 ng/ml) for 30 min. Protein extracts of cells were separated by SDS-PAGE and immunoblotted serially with antibodies to pStat1, total Stat1 and β-actin. Blots were stripped between each immunoblotting. The results shown are representative of 2 or more experiments.

[2] = tested on: IL-6-mediated Stat3 nuclear translocation (GFP-Stat3α); assay: HTFM nuclear translocation assay in MEF/GFP-Stat3α cells; assay type: cell-based, murine; settings: Mus musculus, compound 1 hour, then IL-6 200 ng/ml and IL-6sR 250 ng/ml 30 min, read-out: HTFM IC50, inhibition of IL-6-mediated Stat3 nuclear translocation
Description: Confocal and high-throughput fluorescence microscopy (HTFM) of MEF/GFP-Stat3α cells were performed as described. Briefly, for confocal fluorescence microscopy, cells were grown in 6-well plates containing a cover slip. For HTFM, cells were seeded into 96-well CC3 plates at a density of 5,000 cells/well using an automated plating system. Cells were cultured under standard conditions until 85–90% confluent. Cells were pre-treated with compound for 1 hour at 37°C then stimulated with IL-6 (200 ng/ml) and IL-6sR (250 ng/ml) for 30 minutes to provide optimal Stat3 activation and nuclear translocation in these cells, as described. Cells were fixed with 4% formaldehyde in PEM Buffer (80 mM Potassium PIPES, pH 6.8, 5 mM EGTA pH 7.0, 2 mM MgCl2) for 30 minutes at 4°C, quenched in 1 mg/ml of NaBH4 (Sigma) in PEM buffer and counterstained for 1 min in 4,6-diamidino-2-phenylindole (DAPI; Sigma; 1 mg/ml) in PEM buffer. Cover slips were examined by confocal fluorescent microscopy. Plates were analyzed by automated HTFM using the Cell Lab IC Image Cytometer (IC100) platform and Cytoshop Version 2.1 analysis software (Beckman Coulter). Nuclear translocation is quantified by using the fraction localized in the nucleus (FLIN) measurement. FLIN values were normalized by subtracting the FLIN for unstimulated cells then dividing this difference by the maximum difference (delta, Δ) in FLIN (FLIN in cells stimulated with IL-6/sIL-6R in the absence of compound minus FLIN of unstimulated cells). This ratio was multiplied by 100 to obtain the percentage of maximum difference in FLIN and was plotted, where indicated, as a function of the log compound concentration. The best-fitting curve and IC50 value were determined using 4-Parameter Logistic Model/Dose Response/XLfit 4.2, IDBS software.
Figure 4 Inhibition of cytoplasmic-to-nuclear translocation of Stat3 assessed by confocal and high-throughput fluorescence microscopy (HTFM). […] Coverslips were examined by confocal fluorescent microscopy using filters to detect GFP (column one), DAPI (column two) or both (merge; column three). In panel B, MEF-GFP-Stat3 cells were grown in 96-well plates with optical glass bottoms and pre-treated with the indicated compound at the indicated concentrations in quadruplicate for 1 hour then stimulated with IL-6 (200 ng/ml) and IL-6sR (250 ng/ml) for 30 minutes. Cells were fixed and the plates were examined by high-throughput microscopy to determine the fluorescence intensity in the nucleus (FLIN). The percent of maximum change (delta, Δ) in FLIN was calculated as described in the Methods and plotted as a function of the log of the compound concentration. […] Best-fit curves were determined using 4-Parameter Logistic Model/Dose Response/XLfit 4.2, IDBS software and were used to calculate the IC50 values (Table 2).

O=C(O)c1ccc(C=CC(=O)c2ccc3c(c2)OCCO3)cc1 [Cpd3, 4-[3-(2,3-dihydro-1,4-benzodioxin-6-yl)-3-oxo-1-propen-1-yl]benzoic acid]
Block of IFN-γ-stimulated Stat1 phosphorylation [1]: did not | IC50 [2]: 131 µM
